Each block holds one compound with its values, some of them ahead of it. The source made the active and inactive calls. The rule behind the calls is not given here.
What was measured:
Aromatase [1] = molecular target: T1, Aromatase (Homo sapiens, UniProt P11511); assay: Inhibition of human aromatase assessed as reduction in fluorescence intensity using 7-methoxy-4-trifluoromethyl coumarin as a substrate by fluorimetric assay
T1 sequence (P11511 whole entry): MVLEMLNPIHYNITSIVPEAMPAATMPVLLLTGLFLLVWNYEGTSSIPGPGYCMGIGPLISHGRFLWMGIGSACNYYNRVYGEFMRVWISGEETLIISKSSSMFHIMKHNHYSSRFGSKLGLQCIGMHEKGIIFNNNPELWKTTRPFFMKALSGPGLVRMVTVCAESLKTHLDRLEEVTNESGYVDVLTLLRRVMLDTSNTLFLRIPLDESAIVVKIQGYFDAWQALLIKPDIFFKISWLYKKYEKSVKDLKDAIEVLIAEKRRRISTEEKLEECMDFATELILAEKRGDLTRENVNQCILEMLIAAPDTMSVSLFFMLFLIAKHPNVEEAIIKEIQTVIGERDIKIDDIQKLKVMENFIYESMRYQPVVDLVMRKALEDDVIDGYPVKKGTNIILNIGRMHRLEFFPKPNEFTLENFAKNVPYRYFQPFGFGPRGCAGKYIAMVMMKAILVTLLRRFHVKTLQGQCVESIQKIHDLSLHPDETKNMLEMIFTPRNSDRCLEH

MCF7 [2] = assay: Cytotoxicity against human MCF7 cells assessed as reduction in cell metabolic activity up to 50 uM incubated for 24 hrs by MTT assay relative to control; format: functional; parameters: scale not given: the % may be the effect or the level left; conditions: dose microM <=50
MCF7 [3] = assay: Cytotoxicity against human MCF7 cells assessed as release of LDH up to 250 uM measured after 24 hrs by lactate dehydrogenase assay; format: functional, cell-based; conditions: dose microM <=250, time 24.0 hrs
MCF7 [4] = assay: Cytotoxicity against human MCF7 cells assessed as reduction in cell metabolic activity up to 50 uM incubated for 48 hrs by MTT assay relative to control; format: functional; parameters: scale not given: the % may be the effect or the level left; conditions: dose microM <=50
MCF7 [5] = assay: Cytotoxicity against human MCF7 cells assessed as reduction in cell metabolic activity incubated for 72 hrs by MTT assay; format: functional, cell-based
HFF-1 [6] = assay: Cytotoxicity against human HFF-1 clls assessed as reduction in cell viability at 10 to 100 uM measured after 72 hrs by MTT assay; format: cell-based; conditions: hff-1, 72 h, dose 10-100 µM
[7] = Selectivity index, ratio of IC50 for cytotoxicity against human HFF-1 cells to IC50 for cytotoxicity against human MCF7 cells measured after 24 hrs by MTT assay; format: toxicity, cell-based; conditions: HFF-1 cells and MCF7 cells, read-out: Selectivity Index
Aromatase [8] = molecular target: T1, Aromatase; assay: Inhibition of human aromatase assessed as reduction in fluorescence intensity using 7-methoxy-4-trifluoromethyl coumarin as a substrate at 1 uM by fluorimetric assay relative to control
Aromatase [9] = molecular target: T1, Aromatase; assay: Potency index, ratio of resveratrol IC50 to test compound IC50 for Inhibition of human aromatase assessed as reduction in fluorescence intensity using 7-methoxy-4-trifluoromethyl coumarin as a substrate by fluorimetric assay
MCF7 [10] = assay: Cytotoxicity against human MCF7 cells assessed as reduction in cell metabolic activity at 100 uM incubated for 24 hrs by MTT assay relative to control; format: functional; parameters: scale not given: the % may be the effect or the level left
MCF7 [11] = assay: Cytotoxicity against human MCF7 cells assessed as fold increase in release of LDH at 50 uM measured after 24 hrs by lactate dehydrogenase assay relative to control; format: functional
MCF7 [12] = assay: Induction of apoptosis in human MCF7 cells assessed as cells in apoptotic stage at 100 uM measured after 24 hrs by Annexin V-APC/PI staining based flow cytometry analysis (Rvb= 7.3%); format: functional
MCF7 [13] = assay: Induction of apoptosis in human MCF7 cells assessed as cells in apoptotic stage at 250 uM measured after 24 hrs by Annexin V-APC/PI staining based flow cytometry analysis (Rvb= 7.3%); format: functional
MCF7 [14] = assay: Induction of apoptosis in human MCF7 cells assessed as increase in necrotic cells at 10 to 250 uM measured after 24 hrs by Annexin V-APC/PI staining based flow cytometry analysis relative to control; format: functional, cell-based; conditions: dose 10-250 µM
MCF7 [15] = assay: Cell cycle arrest in human MCF7 cells assessed as reduction in cells in S phase measured after 72 hrs by propidium iodide staining based flow cytometry analysis; format: functional
MCF7 [16] = assay: Cell cycle arrest in human MCF7 cells assessed as increase in cells in G1 phase measured after 72 hrs by propidium iodide staining based flow cytometry analysis; format: functional
HFF-1 [17] = assay: Cytotoxicity against human HFF-1 clls assessed as reduction in cell viability at 250 uM measured after 72 hrs by MTT assay; format: cell-based; conditions: hff-1, 72 h
[18] = Selectivity index, ratio of IC50 for cytotoxicity against human HFF-1 cells to IC50 for cytotoxicity against human MCF7 cells measured after 48 hrs by MTT assay; format: toxicity, cell-based; conditions: HFF-1 cells and MCF7 cells, read-out: Selectivity Index
[19] = Selectivity index, ratio of IC50 for cytotoxicity against human HFF-1 cells to IC50 for cytotoxicity against human MCF7 cells measured after 72 hrs by MTT assay; format: toxicity, cell-based; conditions: HFF-1 cells and MCF7 cells, read-out: Selectivity Index
Aromatase [20] = molecular target: T1, Aromatase; assay: Inhibition of human aromatase in T47D measured after 24 hrs by ELISA
MCF7 [21] = assay: Cytotoxicity against human MCF7 cells assessed as reduction in cell metabolic activity at 250 uM incubated for 72 hrs by MTT assay relative to control; format: functional; parameters: scale not given: the % may be the effect or the level left

IC50 (Aromatase [1]): 7.9 µM
SMILES: N#Cc1ccc(S(=O)(=O)Nc2ccc(/N=N/c3ccccc3)cc2)cc1
Activity (MCF7 [2]): 20%
Activity (MCF7 [3]): inactive
Activity (MCF7 [4]): 60%
Activity (MCF7 [5]): Dose-Dependent Effect
Activity (HFF-1 [6]): Non-Toxic
selectivity ratio at 24 h [7]: > 1.6

inhibition at 1 µM (Aromatase [8]): < 20%
SMILES: CCS(=O)(=O)Nc1ccc(/N=N/c2ccccc2)cc1

inhibition at 1 µM (Aromatase [8]): < 20%
SMILES: O=S(=O)(Nc1ccc(/N=N/c2ccccc2)cc1)c1ccccc1

inhibition at 1 µM (Aromatase [8]): < 20%
SMILES: CS(=O)(=O)Nc1ccc(/N=N/c2ccccc2)cc1

inhibition at 1 µM (Aromatase [8]): < 20%
SMILES: Cc1ccc(S(=O)(=O)Nc2ccc(/N=N/c3ccccc3)cc2)cc1[N+](=O)[O-]

inhibition at 1 µM (Aromatase [8]): < 20%
SMILES: O=S(=O)(Cc1ccccc1)Nc1ccc(/N=N/c2ccccc2)cc1

inhibition at 1 µM (Aromatase [8]): < 20%
SMILES: O=S(=O)(Nc1ccc(/N=N/c2ccccc2)cc1)c1ccc(Cl)s1

More lines, now with the values behind:

SMILES: N#Cc1ccc(S(=O)(=O)Nc2ccc(/N=N/c3ccccc3)cc2)c(Cl)c1
inhibition at 1 µM (Aromatase [8]): < 20%

SMILES: O=[N+]([O-])c1cccc(S(=O)(=O)Nc2ccc(/N=N/c3ccccc3)cc2)c1
inhibition at 1 µM (Aromatase [8]): < 20%

SMILES: CC(=O)Nc1ccc(S(=O)(=O)Nc2ccc(/N=N/c3ccccc3)cc2)cc1
inhibition at 1 µM (Aromatase [8]): < 20%

SMILES: COc1ccc(S(=O)(=O)Nc2ccc(/N=N/c3ccccc3)cc2)c(OC)c1
IC50 (Aromatase [1]): 1.6 µM
Ratio IC50 (Aromatase [9]): 50
Activity (MCF7 [2]): 20%
Activity (MCF7 [10]): 47.4%
fold change (FC) (MCF7 [11]): 2.5
Activity (MCF7 [12]): 19.7%
Activity (MCF7 [13]): 14.7%
Activity (MCF7 [14]): Active
Activity (MCF7 [4]): 60%
Activity (MCF7 [5]): Dose-Dependent Effect
Activity (MCF7 [15]): Dose-Dependent Effect
Activity (MCF7 [16]): Dose-Dependent Effect
Activity (HFF-1 [6]): Non-Toxic
Activity (HFF-1 [17]): Toxic
selectivity ratio at 24 h [7]: 2.12
selectivity ratio at 48 h [18]: 3.19
selectivity ratio at 72 h [19]: 3.74

SMILES: Cc1ccc(S(=O)(=O)N(Cc2nc3ccccc3[nH]2)c2ccc(/N=N/c3ccccc3)cc2)cc1[N+](=O)[O-]
inhibition at 1 µM (Aromatase [8]): < 20%

SMILES: O=S(=O)(c1ccccc1)N(Cc1nc2ccccc2[nH]1)c1ccc(/N=N/c2ccccc2)cc1
inhibition at 1 µM (Aromatase [8]): < 20%

SMILES: COc1cnc(NS(=O)(=O)c2ccc(N/C=C\C(=O)c3cc4ccccc4oc3=O)cc2)nc1
IC50 (Aromatase [20]): 6 µM

SMILES: Oc1ccc(/C=C/c2cc(O)cc(O)c2)cc1 [RESVERATROL]
Activity (MCF7 [10]): 78.2%
Activity (MCF7 [3]): inactive
Activity (MCF7 [5]): Dose-Dependent Effect

SMILES: COc1ccc(S(=O)(=O)N(Cc2nc3ccccc3[nH]2)c2ccc(/N=N/c3ccccc3)cc2)c(OC)c1
inhibition at 1 µM (Aromatase [8]): 50%
IC50 (Aromatase [1]): 5.7 µM
Ratio IC50 (Aromatase [9]): 14
Activity (MCF7 [2]): 20%
Activity (MCF7 [3]): inactive
Activity (MCF7 [4]): 60%
Activity (MCF7 [21]): 134.2%
Activity (HFF-1 [6]): Non-Toxic
selectivity ratio at 24 h [7]: > 2.25

Source: ChEMBL document CHEMBL4828731, “Synthesis, structure-activity relationships and molecular docking studies of phenyldiazenyl sulfonamides as aromatase inhibitors” (Eur J Med Chem, 2021)
